# Experimental data taken from patent publication US20220304957A1, “ANTI-CANCER COMPOSITIONS AND METHODS OF USE” (Board of Supervisors of Louisiana State University and …, priority 2019, published 2022).
# Columns and labels:
# [1] = system: U-87MG human glioblastoma cell line; assay: Cell death, trypan blue, U-87MG; settings: 5-50 μM, 96 h
# Method: (§1) The percentage of cell death was calculated at 96-hour time point for all experimental conditions.
# [2] = PP1 tissue distribution after oral administration (HPLC); format: in vivo, C57BL/6 mice
# Method: Panel A: PP1 accumulation in different tissues following oral administration of PP1 (25 mg/kg). C57BL/6 mice were treated daily for 14 days, and the levels of PP1 in the blood, liver, spleen, kidney, heart, brain and in brain tumors, were evaluated by HPLC, as previously described. Data represent average values with standard deviation (n=3). Panel B: Body weight of C57BL/6 mice treated with PP1. Mice were treated with the PP1 at doses ranging from 25 to 75 mg/kg/day administered by oral gavage. Following 7 and 14 days of daily drug administration both control (DMSO-treated) and experimental (PP1-treated) mice were weighted. Data represent average values with standard deviation (at least three mice per group were included). In Panels A and B, tumor free and tumor bearing mice were included for the body weight measurement. Panels C, D and E: Intracranial growth of GL-261-Luc cells. C57 black mice, 6-8 weeks of age were anesthetized with 4% isoflurane and secured in a stereotaxic head frame (Harvard Apparatus, Holliston Mass.). GL-261-luc cells (1×10^5 cells in 2 μl; PerkinElmer Inc.) were injected into the brain parenchyma (coordinates: 3 mm anterior to Bregma; 1.5 mm lateral to Sagital suture; 3 mm down from surface) through a burr hole in the skull using a 10 μl Hamilton syringe. Panel C: Mice with large intracranial tumors were selected using bioluminescence imaging with Xenogen IVIS 200 system. Tumor size is expressed as radiance (photons/s/cm2/sr) and was quantified with the Living Image 4.1 software according to the manufacturer's recommendations (Xenogen). Panels D and E: Pathological evaluation of intracranial tumors and tissues. Following 14 days of drug administration (control: DMSO administered daily by oral gavage; PP1 50 mg/kg administered daily by oral gavage) the animals were euthanized, and the following organs were collected: liver, kidneys, spleen, heart, intact brain and intracranial tumors. The tissues were formalin-fixed, paraffin-embedded, and the resulting thin section were stained with hematoxylin and eosin (H&E) for a routine pathological evaluation.
# Detection of PP compounds by high performance liquid chromatography (HPLC) —All HPLC data were obtained from the Agilent 1100 apparatus equipped with a line degasser, binary pump (high pressure mixer), autosampler, column thermostat and Diode Array Detector (DAD) (Agilent Technologies, Santa Clara, Calif.). The analytical column 3 μm, 4.6×150 mm (Octyl Silane C8; YMC America, Inc.), solvent A—50 mM acetic acid in water, and solvent B—acetonitrile, with isocratic flow were used to detect and quantify PP compounds in culture media, in cells, tissues and body fluids. The flow rate was set to 1 ml/min, column temperature was 20° C., and the sample volume was 5 μl. DAD wavelength was set to 285 nm. Sample preparation. Blood, cell culture media, cellular and tissue lysates, were deproteinized by adding 150 μl of acetonitrile to 150 μl of sample, mixed well and centrifuged (15 000 g, 5 min). The lysates were sonicated on ice and centrifuged (15 000 g, 5 min). Finally, 150 μl of the supernatant was mixed with the equal volume of acetonitrile, filtered through 0.22 μm centrifuge filter (Sigma) and analyzed by High Performance Liquid Chromatography (HPLC).
# Animal studies—All described procedures involving experimental animals were performed in accordance to the IACUC protocol #3444 at LSUHSC, New Orleans. C57BL/6NHsd mice, 11-12 weeks of age (Envigo), were anesthetized with 4% isoflurane and secured in a stereotaxic head frame (Harvard Apparatus, Holliston Mass.). GL-261-luc cells (1×105) (PerkinElmer Inc.) were suspended in PBS and 2 μl aliquots were injected into the brain parenchyma (coordinates: 3 mm anterior to Bregma; 1.5 mm lateral to Sagital suture; 3 mm down from surface) through a burr hole in the skull using a 10 μl Hamilton syringe. […]
# [3] = system: LN229 human glioblastoma cell line; assay: Cell viability (MTT assay), LN229; format: cell-based; settings: MTT
# [4] = system: GBM12 patient-derived human glioblastoma cells; assay: Cell death, trypan blue, GBM12; settings: 5-50 μM, 96 h
# Method: as §1
# [5] = mouse, in vivo; cited from earlier work
# [6] = Stability in human blood (HPLC); format: in vitro ADME; settings: 50 μM added, 37 °C, 48-hour time point
# Method: Aliquots of 50 μM PP1 and FF in DMSO were added to 500 μl to heparinized human blood to a final concentration of 50 μM. Following incubation at 37° C. for the indicated time points, the samples were frozen at −80° C., and later prepared for HPLC-based detection of the compounds. Please note that FF is converted to FA in the presence of human blood. […] Data represent average values with standard deviation (n=3). panel B: Water solubility. FF and PP1, were added to water to a final concentration of 50 mM and sonicated in an ultrasonic bath (Branson 1510 Digital Heated Ultrasonic bath) for one hour at room temperature. The samples were then centrifuged for 10 minutes at 16000×g, and the supernatant filtered through 0.45 μm syringe filter. […] The PPAR transcriptional activity was determined in HepG2 cells by the JsTkpGL3 reporter plasmid, which contains a firefly luciferase gene driven by the PPRE, which consists of three copies of the J site from the apo-AII gene promoter. […] The luciferase activity was detected with Dual-Luciferase reporter assay system (Promega, Madison, Wis.), and the resulting luminescence measured with Synergy 2 microplate reader (BioTek, Winooski, Vt.). […]
# In this experiment, 50 μM of PP1 and 50 μM of FF were incubated with human blood at […], at indicated time points. […] In contrast, nearly 25 μM of PP1 was still detected at the 48-hour time point (FIG. 4A; left panel).
# Water solubility (HPLC) = format: physicochemical; settings: room temperature, sonicated one hour
# Method: Aliquots of 50 μM PP1 and FF in DMSO were added to 500 μl to heparinized human blood to a final concentration of 50 μM. Following incubation at 37° C. for the indicated time points, the samples were frozen at −80° C., and later prepared for HPLC-based detection of the compounds. Please note that FF is converted to FA in the presence of human blood. […] Data represent average values with standard deviation (n=3). panel B: Water solubility. FF and PP1, were added to water to a final concentration of 50 mM and sonicated in an ultrasonic bath (Branson 1510 Digital Heated Ultrasonic bath) for one hour at room temperature. The samples were then centrifuged for 10 minutes at 16000×g, and the supernatant filtered through 0.45 μm syringe filter. Water solubilized PP1 and FF were subsequently processed for HPLC analysis (see Methods). Data represent average values with standard deviation (n=3). panel C: Effects of PP compounds on PPAR responsive elements (PPRE). The PPAR transcriptional activity was determined in HepG2 cells by the JsTkpGL3 reporter plasmid, which contains a firefly luciferase gene driven by the PPRE, which consists of three copies of the J site from the apo-AII gene promoter. […] The luciferase activity was detected with Dual-Luciferase reporter assay system (Promega, Madison, Wis.), and the resulting luminescence measured with Synergy 2 microplate reader (BioTek, Winooski, Vt.). […]
compound,measurement,setting,value
"CN(CCO)C(=O)C(C)(C)Oc1ccc(C(=O)c2ccc(Cl)cc2)cc1 [PP1, 2-[4-(4-chlorobenzoyl)phenoxy]-N-(2-hydroxyethyl)-N,2-dimethylpropanamide]",in vitro cytotoxicity,[1],high in vitro cytotoxicity
same,concentration at 14 days,"[2]; C57BL/6, mouse, brain tumor tissue, po, 25 mg/kg, orally administered, mice, read-out: HPLC-measured concentration in the brain tumor tissues",5 to 6 µM
same,accumulation in the liver,"[2]; oral gavage daily, 14 days",10.3 ± 4.3 µM
same,concentration in intracranial tumors,"[2]; oral gavage daily, 14 days",5.8 ± 0.7 µM
same,level in intact brains,"[2]; oral gavage daily, 14 days",4.9 ± 3.4 µM
same,level in the blood,"[2]; oral gavage daily, 14 days",3.05 ± 0.2 µM
same,level in the heart,"[2]; oral gavage daily, 14 days",6.1 ± 2.4 µM
same,level in the spleen,"[2]; oral gavage daily, 14 days",7.6 ± 3.2 µM
same,accumulation in the kidney,"[2]; oral gavage daily, 14 days, in µM",8.8+/−4.7
same,CV = Cell viability (% of control),[3]; 1 μM,98.36±1.61 % of control
same,CV = Cell viability (% of control),[3]; 5 μM,70.03±2.04 % of control
same,CV = Cell viability (% of control),[3]; 10 μM,43.67±1.88 % of control
same,in vitro cytotoxicity,[4],high in vitro cytotoxicity
same,"brain penetration, concentration",[5],5 µM
same,estimated log BB (from experiment),[5],zero
same,compound still detected in human blood,[6],~25 µM
same,water solubility in comparison to FF,Water solubility (HPLC),much better soluble in water
